The source of these data is patent US7935853B2, “Micronized composition of a 2,4-disubstituted phenol derivative” (priority 2008, dated 2011).

Where “and” joins values, the source holds several entries; their conditions need not be identical. Identical values can stand only once.

The subject of experiment [1] is pulmonary fibrosis induced by bleomycin in C57/BL6 mice. Briefly: Model of pulmonary fibrosis induced by bleomycin in mice (bronchoalveolar lavage fluid). The class given is in vivo, mouse. As for the experimental part:
In the study, female, young and healthy C57/BL6 mice were used, of approximately 9-10 weeks of age at the start of the experimental phase. The choice of C57/BL6 mice was because this is the most commonly used mouse strain in the pulmonary fibrosis model.
Three experimental groups were used in the study:
Group A: (positive control): Bleomycin+Vehicle (PBS) n=10
Group B: Bleomycin+2,4,6-triiodophenol micronized 10 mg/kg q.d. (every 12 hours) n=10
Group C: No treatment (healthy animals) n=1
Where n is the number of animals in each experimental group.
The test item was administered as a suspension in 0.25% methylcellulose (the vehicle). The positive control group received the vehicle.
Both the test item and the vehicle were administered orally in a volume of 5 ml/kg twice per day (q.d.) every 12 hours.
On day 0 pulmonary fibrosis was induced by intratracheal instillation of 0.075 units of bleomycin in 50 μl of sterile saline solution into the lungs of each animal. Immediately afterwards 150 μl of air were introduced intratracheally into each mouse to aid in the pulmonary distribution of the bleomycin.
On day 7 after bleomycin administration, treatment with the test item or vehicle was commenced by oral administration. Treatment was carried out twice per day (every 12 hours) and was continued for 15 days.
On day 21 after bleomycin administration a bronchoalveolar lavage was carried out on all animals. To this effect, mice were anaesthetized with sodium pentobarbital and the trachea of each animal was cannulated. Afterwards 1 ml of PBS at 37° C. was instilled into each lung and re-aspirated back with the use of a syringe. This process was repeated 5 times, each time collecting the aspirated liquid in a vial and combining the liquid obtained from the 5 lavages. The recovered volume of bronchoalveolar lavage was adjusted for all animals to 5 mls.
Once the bronchoalveolar lavage fluid had been obtained, a sample was taken in order to determine cellular viability by trypan blue exclusion. Additionally, a sample of lavage fluid was kept frozen (−20° C.) for subsequent determination of CCL5 and TGF-β concentration by ELISA.
The remaining bronchoalveolar lavage fluid was spun in a cytocentrifuge and stained (Diff-Quick) in order to carry out a differential cell count.
All animals were weighed on arrival at the laboratory and each day during the treatment phase of the experimental period until the end of the study.
For each animal cell viability in bronchoalveolar lavage fluid was determined by Trypan Blue exclusion, and a differential cell count was done by staining cytocentrifuged samples with Diff-Quick stain (this was done on a population of approximately 200 cells per sample). Additionally, the concentration of CCL5 and TGF-β were also determined in bronchoalveolar lavage fluid samples by the use of commercially available ELISA kits specific for mice chemokines from R&D Systems.
The statistical significance of the results was evaluated by use of the statistical package Graphpad Instat 3.
All comparisons were evaluated by the use of Student's t-test (two-way, unpaired data). Values of P≦0.05 were taken as significant.

The target in the next experiment is T1, 5-lipoxygenase (Rattus norvegicus, UniProt P12527).
T1 construct: leukotriene B4 formation (LTB4) by 5-lipoxygenase ex-vivo in rat whole blood stimulated with calcium ionophore; from tissue
T1 sequence (P12527 1-673): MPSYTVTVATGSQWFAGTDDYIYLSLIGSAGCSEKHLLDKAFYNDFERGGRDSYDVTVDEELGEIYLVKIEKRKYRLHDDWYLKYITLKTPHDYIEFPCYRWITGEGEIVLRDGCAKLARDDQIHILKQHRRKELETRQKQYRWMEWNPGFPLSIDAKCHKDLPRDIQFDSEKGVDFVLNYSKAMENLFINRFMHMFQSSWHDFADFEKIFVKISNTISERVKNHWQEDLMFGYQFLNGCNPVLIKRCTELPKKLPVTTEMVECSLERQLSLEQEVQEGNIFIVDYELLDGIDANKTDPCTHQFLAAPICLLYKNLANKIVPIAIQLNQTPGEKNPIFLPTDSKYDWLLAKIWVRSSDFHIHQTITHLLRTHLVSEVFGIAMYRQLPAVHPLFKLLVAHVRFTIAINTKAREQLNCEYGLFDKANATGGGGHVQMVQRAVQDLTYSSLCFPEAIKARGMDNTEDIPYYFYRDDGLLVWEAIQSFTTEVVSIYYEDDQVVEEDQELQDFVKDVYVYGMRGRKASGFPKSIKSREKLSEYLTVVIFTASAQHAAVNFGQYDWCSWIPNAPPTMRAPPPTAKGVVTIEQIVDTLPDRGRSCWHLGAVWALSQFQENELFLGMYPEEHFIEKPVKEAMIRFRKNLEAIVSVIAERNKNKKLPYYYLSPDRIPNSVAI
Briefly: Inhibitory activity over 5-lipoxygenase ex-vivo in rat whole blood (LTB4 by EIA). As to conditions: for LTB4 (ng/ml), group mean / LTB4 (ng/ml), individual samples: blood 1 h after last dose, calcium ionophore 30 μM; for LTB4 (ng/ml), individual samples / LTB4 % inhib., individual samples: individual rats. As for the experimental part:
In the example shown 3 groups of animals (rats) were used, with 6 rats in each group. The groups were;
1 group 1: control (vehicle)
2 group 2: treated with micronized test substance (10 mg/Kg)
3 group 3: treated with non-micronized test substance (10 mg/Kg)
The distribution of animals to each group was done in a randomized manner at the start of the study.
The test and reference substances were administered orally as a suspension in 0.25% carboximethylcellulose in a dosing volume of 4 ml/kg via an oral cannula.
Test substance administration was carried out once every 24 hours (09 h 00 min) for 5 consecutive days. On the 5th day a blood sample was obtained from each animal (1 mL) 1 hour after administration of the test and reference substances. Blood samples were obtained from the posterior (abdominal) vena cava in sterile syringes containing sodium citrate (4%) as an anticoagulant. Each blood sample was divided into two 0.5 ml aliquots (duplicates). A 1 hour time lapse after test substance administration was used before obtaining the blood samples as it was determined in preliminary studies that this is when there is a greater inhibition of leukotriene synthesis by the test substance.
Immediately after collection of the blood samples, the duplicated aliquots were incubated at 37° C. for 10 min. After this time, the aliquots were stimulated with calcium ionophore (30 μM, final concentration) for 30 min at 37° C. Once the incubation period was over the aliquots were centrifuged at 12.000 g for 2 minutes. The resulting plasma was separated and stored at −20° C. for its posterior analysis. In these samples the concentration of leukotriene B4 was determined by enzyme immunoassay (kit EIA; Amersham).

The mark [2] stands for this setting: 10 mg/kg oral twice per day, starting 7 days after bleomycin.
[3] abbreviates: group mean, day 21, 10 mg/kg oral twice per day from day 7.
[4] abbreviates: group mean, day 21 after bleomycin, 10 mg/kg oral twice per day from day 7.
[5] abbreviates: individual mice, day 21, 10 mg/kg oral twice per day from day 7, listed as Group B, 10 mg/kg.
Where [6] appears, read: 10 mg/Kg oral once daily 5 days, 10 mg/kg.
Setting [7] is: 10 mg/Kg oral once daily 5 days, vs control, 10 mg/kg.

Turning to `Oc1c(I)cc(I)cc1I` [Micronized, 2,4,6-triiodophenol], in experiment [1] (setting [2]), the “effect on bleomycin-induced increase of CCL5 and TGFβ in bronchoalveolar lavage fluid (in words)” value is “very significant inhibition”; the “effect on bleomycin-induced lymphocyte and neutrophil percentages in bronchoalveolar lavage fluid (in words)” value is “reduction of the bleomycin-induced increase in lymphocytes and neutrophil percentages”. Further, in experiment [1] (setting [3]), the “CCL5 concentration in BALF, mean” value came to 6.952 pg/mL and the “TGFβ concentration in BALF, mean” value is 40.731 pg/mL. In experiment [1] (setting [4]), the “Lymphocytes, differential cell count in bronchoalveolar lavage fluid (%)” value is on record as 34.35%; the “Macrophages, differential cell count in bronchoalveolar lavage fluid (%)” value is recorded as 60.33%; the “Neutrophils, differential cell count in bronchoalveolar lavage fluid (%)” value is on record as 5.32%. In experiment [1] (setting [5]), the “CCL5 concentration in BALF, individual animals” value was 1.887 pg/mL and 3.041 pg/mL and 6.426 pg/mL and 24.658 pg/mL and 3.426 pg/mL and 2.272 pg/mL; the “TGFβ concentration in BALF, individual animals” value was 6.319 pg/mL and 8.389 pg/mL and 26.335 pg/mL and 38.069 pg/mL and 121.586 pg/mL and 9.770 pg/mL and 74.651 pg/mL. For the same molecule, on 5-lipoxygenase (10 mg/kg, 5 days oral), the “degree of LTB4 inhibition compared with the other form” value is “superior to that obtained with the non-micronized product”. Besides, the “inhibition of leukotriene B4 formation by 5-lipoxygenase ex-vivo (in words)” value on 5-lipoxygenase (10 mg/kg, 5 days oral, P<0.05 ANOVA+Dunnett's test) was “inhibits, in a statistically significant manner”. The “LTB4 (ng/ml), group mean” value at 5-lipoxygenase (group mean, 6 rats, 10 mg/Kg oral once daily 5 days, 10 mg/kg) worked out at 5.492 ng/mL. Also, at 5-lipoxygenase (setting [6]), the “LTB4 (ng/ml), individual samples” value was 6.549 ng/mL and 5.032 ng/mL and 4.583 ng/mL and 6.118 ng/mL and 4.602 ng/mL and 6.067 ng/mL. In addition, on 5-lipoxygenase (setting [7]), the “LTB4 % inhib., individual samples” value was 20.176% and 38.665% and 44.140% and 25.423% and 43.902% and 26.054%. Further, the inhibition at 10 mg/kg at 5-lipoxygenase (rat, po, group mean, 6 rats, 10 mg/Kg oral once daily 5 days, vs control, read-out: LTB4 % inhib., group mean) is 33.1%.
Regarding `Oc1c(I)cc(I)cc1I` [Non-Micronized, 2,4,6-triiodophenol], at 5-lipoxygenase (group mean, 6 rats, 10 mg/Kg oral once daily 5 days, listed as S. Ref., 10 mg/kg), the “LTB4 (ng/ml), group mean” value stood at 6.496 ng/mL. For the same molecule, the “LTB4 % inhib., group mean” value on 5-lipoxygenase (group mean, 6 rats, 10 mg/Kg oral once daily 5 days, vs control, listed as S. Ref., 10 mg/kg) was 20.818%. The “LTB4 (ng/ml), individual samples” value at 5-lipoxygenase (setting [6]) is 6.862 ng/ml and 4.355 ng/ml (2×) and 4.905 ng/ml and 8.818 ng/ml and 9.682 ng/ml. Further, at 5-lipoxygenase (setting [7]), the “LTB4 % inhib., individual samples” value was 16.356% and 46.917% and 40.210% and −7.480% and −18.013%.
